# Like-named read-outs stand apart in the source and are kept apart here.
# Key:
# [1] = TG-DTA examination in air atmosphere; type: physicochemical; details: for weight loss (TG-DTA): 300° C. (in air), heating rate 10° C./min
# Protocol: Compounds 1 to 6 synthesized in (1) to (6) above were examined by TG-DTA (thermogravimetric-differential thermal analysis) in order to investigate the behavior thereof in thermal decomposition. The examination was made with apparatus for both differential thermal analysis and thermogravimetry TG/DTA6200, manufactured by SII Nano Technology Inc., in an air atmosphere (flow rate, 200 mL/min) under the conditions of a heating rate of 10° C./min. In [60]fullerene, a large weight loss accompanied by heat generation began to be observed at around 500° C. This weight loss was due to oxidation/combustion. […] This large weight loss is thought to be attributable to the pyrolysis of the fullerene derivative.
# [2] = cited from earlier work
# [3] = Solubility of fullerene derivatives in toluene (HPLC determination); type: physicochemical
# Protocol: The solubility of a fullerene derivative can be determined, for example, by diluting a solution of the fullerene derivative with a good solvent, e.g., toluene, and examining the dilution with an analyzer such as, e.g., a high-performance liquid chromatograph (HPLC). More specifically, the procedure is as follows. A dilution of the fullerene derivative solution is analyzed with an HPLC having an ultraviolet/visible detector to determine that peak intensity for the fullerene derivative which is obtained from the absorbance of an ultraviolet light having a specific wavelength (e.g., 290 nm). The concentration of the fullerene derivative in the dilution of the fullerene derivative solution is determined from a calibration curve obtained beforehand from fullerene derivative standard solutions having known concentrations (prepared using the solvent used for diluting the fullerene derivative solution). This concentration value is multiplied by the dilution ratio to thereby determine the fullerene derivative concentration in the original fullerene derivative solution.
# [4] = TG examination in nitrogen atmosphere; type: physicochemical; details: for weight loss (TG-DTA): heating rate 10° C./min; for temperature of weight loss attributable to pyrolysis, compared with air: in nitrogen, result in words
# Protocol: The examination was made with apparatus for both differential thermal analysis and thermogravimetry TG/DTA6200, manufactured by SII Nano Technology Inc., in a nitrogen atmosphere (flow rate, 200 mL/min) under the conditions of a heating rate of 10° C./min.
# [5] = Washing of coating films with toluene before and after heat treatment; type: physicochemical; details: coating film
# Protocol: A 5% by mass PGMEA solution of each of Compounds 1, 2, and 5 and a 5% by mass cyclohexanone solution of each of Compounds 3 and 4 were prepared. Each solution was applied to a glass substrate (50×50 mm) with a spin coater and dried at 100° C. Thereafter, the coating films were examined with an optical microscope. As a result, these coating films were ascertained to be even. These coating films were washed with toluene. As a result, the films were removed. It was thus ascertained that the coating films from which the solvent had been removed were soluble in toluene.
# The coating films of Compounds 1 to 5 each formed on a glass substrate in (8) were placed in an electric furnace heated at 300° C. and heat-treated for 10 minutes in an air atmosphere.
# The fullerene films obtained by the heat treatment of the coating films of Compounds 1 to 3 were examined by X-ray diffractometry (XRD) with RINT 2500, manufactured by Rigaku Corp. […] Measuring conditions are as follows.
# The films which had undergone the heat treatment(s) were washed with toluene. […] It can be seen that although the fullerene derivatives applied in film form had been soluble in toluene solvent, the derivatives became insoluble, through the heat treatment(s), in the solvent in which the fullerene is soluble.
# [6] = after heat treatment (300° C./in air), 10 minutes
compound,measurement,setting,value
c12c3c4c5c1c1c6c7c2c2c8c3c3c9c4c4c%10c5c5c1c1c6c6c%11c7c2c2c7c8c3c3c8c9c4c4c9c%10c5c5c1c1c6c6c%11c2c2c7c3c3c8c4c4c9c5c1c1c6c2c3c41 [[60]fullerene],temperature of oxidation/combustion (large weight loss with heat generation / large exothermic peak),[1]; in air,around 500 °C
same,solubility of [60]fullerene in the solvent,"[2]; 1,2,3-trimethylbenzene",4700 µg/mL
same,solubility of [60]fullerene in the solvent,"[2]; 1,2,4-trichlorobenzene",10400 µg/mL
same,solubility of [60]fullerene in the solvent,"[2]; 1,2,4-trimethylbenzene",17900 µg/mL
same,solubility of [60]fullerene in the solvent,"[2]; 1,3,5-trimethylbenzene",1500 µg/mL
same,solubility of [60]fullerene in the solvent,[2]; 1-methylnaphthalene,33200 µg/mL
same,solubility of [60]fullerene in the solvent,[2]; 1-phenylnaphthalene,50000 µg/mL
same,solubility of [60]fullerene in the solvent,[2]; N-methyl-2-pyrrolidone,890 µg/mL
same,solubility of [60]fullerene in the solvent,[2]; bromobenzene,2800 µg/mL
same,solubility of [60]fullerene in the solvent,[2]; chlorobenzene,5700 µg/mL
same,solubility of [60]fullerene in the solvent,[2]; chloroform,500 µg/mL
same,solubility of [60]fullerene in the solvent,[2]; cyclohexane,50 µg/mL
same,solubility of [60]fullerene in the solvent,[2]; decalin,4600 µg/mL
same,solubility of [60]fullerene in the solvent,[2]; dichloromethane,250 µg/mL
same,solubility of [60]fullerene in the solvent,[2]; ethylbenzene,2600 µg/mL
same,solubility of [60]fullerene in the solvent,[2]; m-dichlorobenzene,2400 µg/mL
same,solubility of [60]fullerene in the solvent,[2]; m-xylene,1400 µg/mL
same,solubility of [60]fullerene in the solvent,[2]; n-decane,70 µg/mL
same,solubility of [60]fullerene in the solvent,[2]; n-dodecane,90 µg/mL
same,solubility of [60]fullerene in the solvent,[2]; n-hexane,40 µg/mL
same,solubility of [60]fullerene in the solvent,[2]; n-tetradecane,126 µg/mL
same,solubility of [60]fullerene in the solvent,[2]; o-dichlorobenzene,24600 µg/mL
same,solubility of [60]fullerene in the solvent,[2]; o-xylene,8700 µg/mL
same,solubility of [60]fullerene in the solvent,[2]; p-xylene,5900 µg/mL
same,solubility of [60]fullerene in the solvent,[2]; quinoline,7200 µg/mL
same,solubility of [60]fullerene in the solvent,[2]; tetrahydrofuran,37 µg/mL
same,solubility of [60]fullerene in the solvent,[2]; toluene,2900 µg/mL
same,solubility of [60]fullerene in the solvent,[2]; xylene,5200 µg/mL
C60 (t-Butoxycarbonylmethylpiperazine)4(O) [Compound 6],weight loss (TG-DTA),[1],38%
same,temperature of weight loss attributable to pyrolysis of the fullerene derivative,[1]; in air,around 200 °C
same,Solubility in toluene,[3],≥ 10%
same,weight loss (TG-DTA),[4]; 300° C. (in nitrogen),50%
same,"temperature of weight loss attributable to pyrolysis, compared with air",[4],almost the same temperature as in air
C60(tBu-isonipecotate)4(O) [Compound 5],weight loss (TG-DTA),[1],37%
same,temperature of weight loss attributable to pyrolysis of the fullerene derivative,[1]; in air,around 200 °C
same,Solubility in toluene,[5]; [6],insoluble
same,Solubility in toluene,[5]; before heat treatment,soluble
same,Solubility in toluene,[3],≥ 10%
same,weight loss (TG-DTA),[4]; 300° C. (in nitrogen),44%
same,"temperature of weight loss attributable to pyrolysis, compared with air",[4],almost the same temperature as in air
N-(4-hydroxyphenyl)-2-n-dodecylpyrrolidine-C60 [Compound 3],weight loss attributable to fullerene derivative pyrolysis,"[1]; TG in air, result in words",No weight loss attributable to fullerene derivative pyrolysis was observed
same,Solubility in toluene,[5]; [6],soluble
same,Solubility in toluene,"[5]; after heat treatment (500° C./in air), 10 minutes",insoluble
same,Solubility in toluene,[5]; before heat treatment,soluble
same,Solubility in toluene,[3],6%
same,weight loss (TG-DTA),[4]; 600° C. (in nitrogen),12%

# — patent US20100317767A1, “FULLERENE FILM AND FULLERENE POLYMER BOTH PRODUCED FROM FULLERENE DERIVATIVE AND PROCESSES FOR PRODUCING THESE” (FRONTIER CARBON CORPORATION, priority 2006, published 2010)
